Measurements: patent US4590161A, “Microbiologically produced L-phenylalanine-dehydrogenase, process for its recovery and use” (priority 1983, dated 1986)

Tests used:
[1] = tested on: L-phenylalanine-dehydrogenase; assay: Batch reductive amination of α-ketocarboxylic acids with NADH regeneration by formate-dehydrogenase, product on aminoacid analyzer; assay type: biochemical, Brevibacterium species DSM 2448
Protocol: In order to regenerate the NADH consumed in the reductive amination there was added to the reaction mixture an excess of ammonium formate and the enzyme formate-dehydrogenase (E.C. 1.2.1.2) which in the oxidation of formate to CO2 reduces the cosubstrate NAD^+ to NADH.
The test mixture contained thereby uniformly 400 mM of ammonium formate (pH 8.5), 0.3 mM NADH, 0.6 U/ml formate-dehydrogenase (prepared according to Kroner et al (1982), J. Chem. Tech. Biotechnol, Volume 32, pages 130 to 137), 0.5 U/ml L-phenylalanine-dehydrogenase, 25 mM α-ketocarboxylic acid. The total volume was 3 ml. The incubation was carried out with stirring at 27° C. The product formation in each case was followed on the aminoacid analyzer.

[2] = tested on: L-phenylalanine-dehydrogenase; assay: Continuous production of L-phenylalanine in enzyme membrane reactor with PEG-NADH; assay type: biochemical, Brevibacterium species DSM 2448; conditions: over 110 hours, residence time 2.5 hours, 20 mM phenyl pyruvate
Excerpt: It is possible to continuously synthesize phenalyalanine from phenyl pyruvate in an enzyme membrane reactor using molecular weight enlarged NADH bound to polyethylene glycoe (PEG). The PEG-NADH was produced according to German Pat. No. 2,841,414. The modified coenzyme and the enzyme formate-dehydrogenase employed and L-phenylalanine-dehydrogenase were retained in the reactor by an ultrafiltration membrane YM5 (product of the Amicon Company, Witten) while the lower molecular weight components of the reaction solution, unreacted substrate and the L-phenylalanine formed were continuously removed from the reactor. The reactor volume was held constant while phenyl pyruvate and ammonium formate were metered in from a reservoir to the same extent that the ultrafiltrate left the reactor. The reactor volume was 10 ml, the concentration of PEG-NADH 0.3 mM. There were injected into the reactor 20 units of formate-dehydrogenaseand 20 units of L-phenylalanine-dehydrogenase. […]
The reaction solution was continuously circulated over the membrane at 30 ml/hour with a peristaltic pump. […] The ultrafiltrate was collected in fractions and the content of L-phenylalanine determined on the aminoacid analyzer. Over a time span of 110 hours on the average 70% of the phenyl pyruvate was converted to L-phenylalanine, in the combined ultrafiltrates there were measured 6.9 mmoles (1.14 grams) of L-phenylalanine. […]

[3] = tested on: L-phenylalanine-dehydrogenase; assay: Photometric test of reductive amination (decrease of NADH at 340 nm); conditions: purified PheDH (0.055 mg protein/ml), pH 8.5, 0.2 mM NADH, 0.7M ammonium chloride
Protocol: The enzyme activity is determined with a photometric test, by measuring the decrease of the adsorption of NADH at 340 nm. […] The reaction rate of the catalyzed reaction is measured in relation of pH. […] If the substrate concentration of the aromatic α-ketocarboxylic acids or of the aromatic L-aminocarboxylic acids is small compared to their Km value then the reaction rate depends linearly on the substrate concentration.
The relationship of the speed of reaction of the reductive amination of phenyl pyruvate to L-phenylalanine for the substrate NADH was investigated in the following test mixture:
The dependency of the speed of reaction of the reductive amination of phenyl pyruvate to L-phenylalanine on the ammonium ion concentration was investigated in the following test mixture.

[4] = 25 mM α-ketocarboxylic acid, 0.5 U/ml enzyme, 27° C., 2 hours
[5] = 25 mM α-ketocarboxylic acid, 0.5 U/ml enzyme, 27° C., 6 hours

With `O=C(O)C(=O)Cc1ccccc1` [Phenylpyruvate, Phenyl pyruvic acid] the “Product Formation after 2 hours, %” value [1, 4] was 50%, the “Product Formation after 2 hours, mM” value [1, 4] was 12,5 mM and the “Product Formation after 6 hours, %” value [1, 5] was 66%. The “Product Formation after 6 hours, mM” value [1, 5] was 16,6 mM, the “Utilization as a substrate” value ([1]; result in words) was “converted well” and the “phenyl pyruvate converted to L-phenylalanine, on the average” value [2] was 70%. The Km [3] was 110 µM and the Vmax [3] was 1.82 U/ml.
